Values quoted from earlier work in US20070134273A1, “Composition and method for the treatment of carcinoma” (priority 2004, published 2007).
Like-named read-outs stand apart in the source and are kept apart here.

Columns and labels:
[1] = system: peripheral blood mononuclear cells, monocytes, and dendritic cells; details: in vitro and in vivo, versus imiquimod (Aldara R-837)
[2] = transurethral resection plus intravesical agent versus transurethral resection alone

SMILES | studies with a significant reduction in tumor progression (bladder cancer; [2]) | studies with a significant reduction in tumor recurrences (bladder cancer; [2]) | potency in inducing cytokines relative to imiquimod [1] | studies with a significant reduction in tumor progression (bladder cancer; in vivo) | studies with a significant reduction in tumor recurrences (bladder cancer; in vivo)
COc1cccc2c1C(=O)c1c(O)c3c(c(O)c1C2=O)C[C@@](O)(C(=O)CO)C[C@@H]3O[C@H]1C[C@H](N)[C@H](O)[C@H](C)O1 [doxorubicin] | 0 of 2 | 2 of 4 | – | – | –
CCOCc1nc2c(N)nc3ccccc3c2n1CC(C)(C)O [Resiquimod, 4-amino-2-ethoxymethyl-α, α-dimethyl-1H-imidazo[4,5-c]quinoline-1-ethanol] | – | – | about 100 times | – | –
S=P(N1CC1)(N1CC1)N1CC1 [thiotepa] | – | – | – | 0 of 3 | 6 of 10
CO[C@@]12[C@H](COC(N)=O)C3=C(C(=O)C(C)=C(N)C3=O)N1C[C@@H]1N[C@@H]12 [mitomycin] | 0 of 2 | 2 of 5 | – | – | –
